Experimental data taken from patent publication US10189786B2, “Antibacterial compounds” (Duke University, priority 2013, dated 2019).
≈ marks a conversion by molar mass, not a printed value.

Columns and labels:
E. coli W3110 = experiment: microbe, parasite or virus in culture; type: cell-based; details: wild-type E. coli W3110, 22 hours at 37° C., MTT; for MIC: Escherichia coli, W3110, 22 h
P. aeruginosa PAO1 = experiment: MIC assay, P. aeruginosa PAO1; type: cell-based; details: for MIC P. aeruginosa PAO1: unit from b306; for MIC: Pseudomonas aeruginosa
E. coli W3110PA = experiment: microbe, parasite or virus in culture; type: cell-based; details: E. coli with native lpxC replaced by that of P. aeruginosa; for MIC E. coli W3110PA: unit from b306; for MIC: Escherichia coli, W3110PA
[1] = test system: N. gonorrhoeae FA19 (a drug-sensitive strain); experiment: Disk diffusion assay, N. gonorrhoeae FA19; type: cell-based; details: disc 6 mm; for zone of inhibition at 2 µg/disc / zone of inhibition at 20 µg/disc / zone of inhibition at 0.2 µg/disc: Neisseria gonorrhoeae, read-out: diameter of the growth inhibition, FA19
Protocol: (§1) An assay was performed on two strains of Acinetobacter Baumannii: antibiotic susceptible strain (Sus. A.b. Isolate), and multidrug-resistant strains (MDR A.b. Isolate). […] Activity is measured as the diameter (in mm) of the growth inhibition.

[2] = test system: N. gonorrhoeae 35/02 (drug-resistant strain); experiment: Disk diffusion assay, N. gonorrhoeae 35/02; type: cell-based; details: disc 6 mm; for zone of inhibition at 0.2 µg/disc / zone of inhibition at 2 µg/disc / zone of inhibition at 20 µg/disc: Neisseria gonorrhoeae, read-out: diameter of the growth inhibition, 35/02; for zone of inhibition at 0.2 µg/disc: 0.2 μg per disc
Protocol: as §1

[3] = test system: N. gonorrhoeae F89 (high-level cefixime and ceftriaxone resistance); experiment: Disk diffusion assay, N. gonorrhoeae F89; type: cell-based; details: disc 6 mm; for zone of inhibition at 0.2 µg/disc / zone of inhibition at 2 µg/disc / zone of inhibition at 20 µg/disc: Neisseria gonorrhoeae, read-out: diameter of the growth inhibition, F89
Protocol: as §1

N. gonorrhoeae H041 = experiment: Disk diffusion assay, N. gonorrhoeae H041; type: cell-based; details: disc 6 mm; for zone of inhibition at 0.2 µg/disc / zone of inhibition at 2 µg/disc / zone of inhibition at 20 µg/disc: Neisseria gonorrhoeae, read-out: diameter of the growth inhibition, H041; for zone of inhibition at 0.2 µg/disc: H041, 0.2 μg per disc; for zone of inhibition at 2 µg/disc: H041, 2.0 μg per disc; for zone of inhibition at 20 µg/disc: H041, 20 μg per disc
Protocol: as §1

N. gonorrhoeae (FA35/02) [4] = details: description of the resistance of strain 35/02; cited from earlier work
N. gonorrhoeae (FA35/02) [5] = experiment: MIC assay, N. gonorrhoeae 35/02; type: cell-based; details: drug-resistant strain; for MIC: Neisseria gonorrhoeae
Protocol: MICs are determined according to the NCCLS protocol using 96-well plates. Briefly, diluted bacterial cells (10^6 cells/mL) are added into each well of the 96-well plates containing LB medium with 5% DMSO and various concentrations of the compound of disclosure. After incubation of the plates for 22 hours at 37° C., [4,5-dimethylthiazol-2-yl]-2,5-diphenyltetrazolium bromide solution (MTT) is added (final concentration, 0.2 mg/mL) and incubated at 37° C. for another 3 hrs. MIC is determined as the lowest concentration of an antibiotic that prevented color change (yellow to purple).
The antibiotic activities of several exemplary compounds useful in the methods of the disclosure are evaluated by measurements of minimum inhibitory concentrations (MICs) using two N. gonorrhoeae strains: FA19 (a drug-sensitive strain) and 35/02 (drug-resistant strain.) FA19 is an isolate from uncomplicated infection and was lyophilized in 1962. […] The strain is being sequenced to elucidate the mechanisms involved in high-level chromosomally mediated resistance.

E. coli W3110NG = experiment: MIC assay, E. coli W3110NG; type: cell-based; details: Escherichia coli
[6] = test system: F. novicida U112 (FNU112); experiment: microbe, parasite or virus in culture; type: cell-based; details: Francisella tularensis, read-out: MIC FNU112
[7] = 0.2 μg per disc, listed as 3 (Isomer B)

Compound	MIC (E. coli W3110) [µg/mL]	zone of inhibition at 2 µg/disc ([1]; 2.0 μg per disc) [mm]	zone of inhibition at 20 µg/disc ([1]; 20 μg per disc) [mm]	zone of inhibition at 0.2 µg/disc [2] [mm]	zone of inhibition at 2 µg/disc ([2]; 2.0 μg per disc) [mm]	zone of inhibition at 20 µg/disc ([2]; 20 μg per disc) [mm]	zone of inhibition at 0.2 µg/disc ([3]; 0.2 μg per disc) [mm]	zone of inhibition at 2 µg/disc ([3]; 2.0 μg per disc) [mm]	zone of inhibition at 20 µg/disc ([3]; 20 μg per disc) [mm]	zone of inhibition at 0.2 µg/disc (N. gonorrhoeae H041) [mm]	zone of inhibition at 2 µg/disc (N. gonorrhoeae H041) [mm]	zone of inhibition at 20 µg/disc (N. gonorrhoeae H041) [mm]	MIC (P. aeruginosa PAO1; PAO1, P. aeruginosa PAO1) [µg/mL]	MIC (E. coli W3110PA) [µg/mL]	zone of inhibition at 0.2 µg/disc ([1]; 0.2 μg per disc) [mm]	also measured
CC(CCc1ccc(-c2ccccc2)cc1)(C(=O)NO)C(C)(O)C(F)F (single isomer, unassigned) [Example 3 Isomer A, 2-(2-(biphenyl-4-yl)ethyl)-4,4-difluoro-N,3-dihydroxy-2,3-dimethylbutanamide]	50 (≈ 138 µM)	20	30	0	13	19	18	27	33	9	16	24	–	–	–	MIC P. aeruginosa PAO1 (P. aeruginosa PAO1; P. aeruginosa PAO1, listed as 3 Isomer A): 6.3 µg/mL (≈ 17.3 µM); MIC E. coli W3110PA (E. coli W3110PA; listed as 3 Isomer A): 3.1 µg/mL (≈ 8.53 µM); diameter of the growth inhibition, FA19 ([1]; 0.2 μg per disc, listed as 3 (Isomer A)): 11 mm
CO/N=C(\C(=O)N[C@@H]1C(=O)N2C(C(=O)O)=C(CSc3nc(=O)c(=O)[nH]n3C)CS[C@H]12)c1csc(N)n1 [ceftriaxone]	–	–	–	–	–	–	–	–	–	–	–	–	–	–	–	MIC of reference antibiotics against N. gonorrhoeae 35/02 (N. gonorrhoeae (FA35/02) [4]): 0.12 µg/mL
C[C@@](O)(C(F)F)[C@H](NCCCc1ccc(-c2ccccc2)cc1)C(=O)NO [Example 11, (2S,3S)-2-(3-(biphenyl-4-yl)propylamino)-4,4-difluoro-N,3-dihydroxy-3-methylbutanamide]	1.25 (≈ 3.3 µM)	25	30	14	23	26	19	26	33	11	20	27	2.5 (≈ 6.61 µM)	1.25 (≈ 3.3 µM)	18	MIC (N. gonorrhoeae (FA35/02) [5]): 0.03 to 0.06 µg/mL (≈ 0.0793 to 0.159 µM); MIC N. gonorrhoeae (FA35/02) (N. gonorrhoeae (FA35/02) [5]): 0.03 µg/mL (≈ 0.0793 µM)
penicillin	–	–	–	–	–	–	–	–	–	–	–	–	–	–	–	MIC of reference antibiotics against N. gonorrhoeae 35/02 (N. gonorrhoeae (FA35/02) [4]): 6 µg/mL
C[C@@](O)(C(F)F)[C@H](NCc1ccc(-c2ccccc2)cc1)C(=O)NO [Example 5, (2S,3S)-2-(biphenyl-4-ylmethylamino)-4,4-difluoro-N,3-dihydroxy-3-methylbutanamide]	25 (≈ 71.4 µM)	25	29	0	16	24	8	27	36	7	17	25	3.1 (≈ 8.85 µM)	3.1 (≈ 8.85 µM)	0	–
COc1ccc(-c2ccn(CCC(C)(C(=O)NO)S(C)(=O)=O)c(=O)c2)cc1 (stereo not drawn) [Example 13, N-hydroxy-4-(4-(4-methoxyphenyl)-2-oxopyridin-1 (2H)-yl)-2-methyl-2-(methylsulfonyl)butanamide]	< 0.78	–	–	–	–	–	–	–	–	–	–	–	< 0.78	< 0.78	–	MIC (E. coli W3110NG): 1.25 µg/mL (≈ 3.17 µM); MIC [6]: 1.25 µg/mL (≈ 3.17 µM)
CC(CCn1ccc(-c2ccc(-n3nccn3)cc2)cc1=O)(C(=O)NO)C(C)(O)C(F)F (stereo not drawn) [Example 4, 2-(2-(4-(4-(2H-1,2,3-triazol-2-yl)phenyl)-2-oxopyridin-1 (2H)-yl)ethyl)-4,4-difluoro-N,3-dihydroxy-2,3-dimethylbutanamide]	3.12 (≈ 6.97 µM)	8	19	0	11	16	7	15	26	7	10	16	–	3.13 (≈ 7 µM)	0	–
CC(CCc1ccc(-c2ccccc2)cc1)(C(=O)NO)S(C)(=O)=O (stereo not drawn) [Example 133]	3.13 (≈ 9.01 µM)	–	–	–	–	–	–	–	–	–	–	–	0.39 (≈ 1.12 µM)	0.38 (≈ 1.09 µM)	–	MIC [6]: 3.13 µg/mL (≈ 9.01 µM)
C[C@@H](O)[C@H](NCc1ccc(-c2ccccc2)cc1)C(=O)NO [Example 9, (2S,3R)-2-(biphenyl-4-ylmethylamino)-N,3-dihydroxybutanamide]	25 (≈ 83.2 µM)	–	–	–	–	–	–	–	–	–	–	–	5.4 (≈ 18 µM)	4.8 (≈ 16 µM)	–	MIC (E. coli W3110NG): > 50 µg/mL; MIC [6]: > 5 µg/mL
CC(NCc1ccc(-c2ccccc2)cc1)(C(=O)NO)C(C)(O)C(F)F (stereo not drawn) [Example 6, 2-(biphenyl-4-ylmethylamino)-4,4-difluoro-N,3-dihydroxy-2,3-dimethylbutanamide]	> 50	22	–	–	–	–	–	–	–	–	–	–	–	12.5 (≈ 34.3 µM)	–	MIC (P. aeruginosa PAO1; P. aeruginosa PAO1): 12.5 µg/mL (≈ 34.3 µM)
C[C@@](O)(C(F)F)[C@H](NC(=O)CCc1ccc(-c2ccccc2)cc1)C(=O)NO [Example 14, (2S,3S)-2-(3-(biphenyl-4-yl)propanamido)-4,4-difluoro-N,3-dihydroxy-3-methylbutanamide]	6.25 (≈ 15.9 µM)	27	30	14	22	28	18	27	34	7	20	26	–	12.5 (≈ 31.9 µM)	18	MIC [6]: 12.5 µg/mL (≈ 31.9 µM); MIC (N. gonorrhoeae (FA35/02) [5]): 0.25 µg/mL (≈ 0.637 µM)
CC(CCc1ccc(-c2ccccc2)cc1)(C(=O)NO)C(C)(O)C(F)F (single isomer, unassigned) [Example 3 Isomer B, 2-(2-(biphenyl-4-yl)ethyl)-4,4-difluoro-N,3-dihydroxy-2,3-dimethylbutanamide]	–	–	–	–	–	–	–	–	–	–	–	–	–	–	–	MIC E. coli W3110 (E. coli W3110): >50 µg/mL; MIC P. aeruginosa PAO1 (P. aeruginosa PAO1; P. aeruginosa PAO1, listed as 3 Isomer B): 25 µg/mL (≈ 68.8 µM); MIC E. coli W3110PA (E. coli W3110PA; listed as 3 Isomer B): 25 µg/mL (≈ 68.8 µM); diameter of the growth inhibition, FA19 [1, 7]: 0 mm; diameter of the growth inhibition, FA19 ([1]; 2.0 μg per disc): 15 mm; diameter of the growth inhibition, FA19 ([1]; 20 μg per disc): 23 mm; diameter of the growth inhibition, 35/02 ([2]; 2.0 μg per disc): 8 mm; diameter of the growth inhibition, 35/02 ([2]; 20 μg per disc): 19 mm; diameter of the growth inhibition, F89 [3, 7]: 10 mm; diameter of the growth inhibition, F89 ([3]; 2.0 μg per disc): 20 mm; diameter of the growth inhibition, F89 ([3]; 20 μg per disc): 27 mm; diameter of the growth inhibition, H041 (N. gonorrhoeae H041; [7]): 8 mm; diameter of the growth inhibition, H041 (N. gonorrhoeae H041; 2.0 μg per disc): 10 mm; diameter of the growth inhibition, H041 (N. gonorrhoeae H041; 20 μg per disc): 20 mm
CC(C)(O)C(C)(CCc1ccc(-c2ccccc2)cc1)C(=O)NO (stereo not drawn) [Example 2, 2-(2-(biphenyl-4-yl)ethyl)-N,3-dihydroxy-2,3-dimethylbutanamide]	> 50	–	–	–	–	–	–	–	–	–	–	–	25 (≈ 76.4 µM)	25 (≈ 76.4 µM)	–	–
CC(NCCCc1ccc(-c2ccccc2)cc1)(C(=O)NO)C(C)(O)C(F)F (stereo not drawn) [Example 10, 2-(3-(biphenyl-4-yl)propylamino)-4,4-difluoro-N,3-dihydroxy-2,3-dimethylbutanamide]	61.2 (≈ 156 µM)	25 to 27	30	15	20	27	20	28	35	13	20	27	2.5 (≈ 6.37 µM)	–	17	MIC (N. gonorrhoeae (FA35/02) [5]): 0.06 µg/mL (≈ 0.153 µM)
